# Laboratory results as given in ChEMBL document CHEMBL3886802, “Serine/threonine kinase inhibitors” (2016).
# Target: Mitogen-activated protein kinase 1 (Homo sapiens, UniProt P28482)
# Assay: Enzymatic Assay: Compounds were tested in an enzymatic assay using human ERK-2 (Mitogen Activated Kinase 1), recombinantly expressed as an n-terminal 6-His fusion protein in E. coli and corresponding to a 8-360. The substrate used was the fluorescent Omnia peptide S/T17 (Invitrogen of Carlsbad, Calif.; Cat. KNZ1171C). Test compounds were diluted in DMSO in 3-fold serial dilutions at 100× final concentrations. […] The assay was run at ambient temperature in a white 384-well polypropylene plate (Nunc, Inc of Naperville, Ill.; Cat. 267462) collecting data every 50 seconds for approximately 30 minutes on an Envision plate reader (PerkinElmer, Inc. of Waltham, Mass.); Excitation 340 nm/Emission 495 nm.
# Mitogen-activated protein kinase 1, sequence (P28482 whole entry, the tested form may be a part): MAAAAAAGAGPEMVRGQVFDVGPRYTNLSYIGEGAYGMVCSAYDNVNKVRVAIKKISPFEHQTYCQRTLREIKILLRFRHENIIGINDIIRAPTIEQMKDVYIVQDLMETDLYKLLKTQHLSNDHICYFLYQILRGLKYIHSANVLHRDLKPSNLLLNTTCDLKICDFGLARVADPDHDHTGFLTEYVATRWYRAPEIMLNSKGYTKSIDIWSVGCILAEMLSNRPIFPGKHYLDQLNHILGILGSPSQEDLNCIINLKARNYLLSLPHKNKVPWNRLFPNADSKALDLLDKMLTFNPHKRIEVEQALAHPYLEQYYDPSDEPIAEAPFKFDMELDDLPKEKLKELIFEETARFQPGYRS
smiles,measurement,value
Cn1nccc1Nc1cc2nc(C(=O)N[C@H](CO)c3ccc(Cl)c(F)c3)ccc2cn1,IC50,0.748 nM
